Reference: PMC10856196 (Molecules, 2024)

How the values were obtained:
[1] = target: T1, human MOP receptor (Opioid Receptor Mu 1) (Homo sapiens, UniProt P35372); experiment: Tango β-arrestin recruitment in U2OS cells, antagonist mode against DAMGO EC80; reference antagonist; assay type: cell-based
T1 construct: gene OPRM1; human MOP receptor with linked TEV protease site (Tango OPRM1-bla U2OS)

[2] = target: T1, human MOP receptor (Opioid Receptor Mu 1); experiment: Tango β-arrestin recruitment in U2OS cells, antagonist mode against DAMGO EC80, two concentrations only; assay type: cell-based; conditions: read-out: % Emax at 10 μM (relative to β-funaltrexamine)

T1 sequence (P35372 whole entry): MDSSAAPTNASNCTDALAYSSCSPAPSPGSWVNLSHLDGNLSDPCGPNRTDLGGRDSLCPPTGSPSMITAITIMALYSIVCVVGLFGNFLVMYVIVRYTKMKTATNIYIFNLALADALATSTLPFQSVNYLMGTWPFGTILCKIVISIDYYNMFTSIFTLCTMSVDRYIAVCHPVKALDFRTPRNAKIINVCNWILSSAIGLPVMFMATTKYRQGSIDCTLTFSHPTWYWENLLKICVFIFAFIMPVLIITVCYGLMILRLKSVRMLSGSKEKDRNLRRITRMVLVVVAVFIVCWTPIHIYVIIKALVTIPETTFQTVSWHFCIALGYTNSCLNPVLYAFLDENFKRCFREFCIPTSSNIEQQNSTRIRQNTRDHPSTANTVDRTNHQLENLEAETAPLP

SMILES | Emax at 10 µM [1] [%] | Emax at 10 µM [2] [%]
COC(=O)/C=C/C(=O)N[C@@H]1CC[C@@]2(O)[C@H]3Cc4ccc(O)c5c4[C@@]2(CCN3CC2CC2)[C@H]1O5 [β-Funaltrexamine] | 100 | –
Cc1ccc(N2CCN=C2NC(=O)NC(C)CCc2ccc(F)cc2)cc1 (centres unmarked) [7i, 1-[1-(4-methylphenyl)imidazolin-2-yl]-3-[4-(4-fluorophenyl)but-2-yl]urea] | – | 48
